Laboratory results from US20260139017A1, “COMPOSITIONS AND METHODS USING REELIN IN ALZHEIMER'S DISEASE” (The General Hospital Corporation, priority 2022, published 2026).

Tests used:
[1] = tested on: pDAB1 (Tyr232); test: HRECs treated 5 minutes with HEK 293T-derived mini-RELN media, pDAB1 western blot; assay type: cell-based, human; conditions: HEK 293T-derived media 1:1, 1:4, 1:14, 5 minutes
Protocol: The effect of in vitro treatment with RELN or miniRELN protein was also evaluated. HRECs were cultured in EBM-2 media enriched with EGM-2 Single Quots (Lonza) at 37° C. and 5% CO2 and experimentally tested at passage 7. 24 h prior experiment, cells were plated on a 6-well plate at 500,000 cells/mL. Two hours before the experiment, the cells were washed with PBS to remove residual growth media and then incubated with a starving media including EBM-2, 1% GlutaMax+0,2% Normicin. Treatments was conducted using media derived from HEK 293T cells transiently transfected for 24 h with different mini-RELN constructs in the presence of Lipofectamine 2000. […] Total protein levels were quantified via BCA assay. […] We detected pDAB1 (Tyr232; 1:1000, rabbit, #3325 Cell signaling), and Beta actin (1:5000, mouse, #66009-1-Ig, Proteintech. Antibodies were diluted using Intercept® (TBS) Blocking Buffer and incubated overnight at 4C under gentle shaking. Prior secondary antibody incubation, membranes were washes 2 times using TBS-T for 10 minutes. As secondary antibodies we used IR Dye 800n CW Goat-anti-Rabbit (925-32211, Licor) and IR Dye 680 CW Goat-anti-Mouse (925-68070, Licor) both diluted 1:10000 in blocking buffer for 1 h at room temperature under gentle shaking. Membranes were washed three times with TBS-T prior IR detection using Odyssey imager. […]

[2] = tested on: pDAB1 (Tyr232); test: HRECs treated 5 minutes with recombinant mini-RELN, pDAB1 western blot; assay type: cell-based, human; conditions: 5 minutes, 4 ug/mL recombinant protein
Protocol: For in vitro screening of constructs using recombinant mini-RELN on HRECs, the cells were cultured in EBM-2 media enriched with EGM-2 Single Quots (Lonza) at 37° C. and 5% CO2 and experimentally tested at passage 7. 24 h prior experiment, cells were plated on a 6-well plate at 500,000 cells/mL. Two hours before the experiment, the cells were washed with PBS to remove residual growth media and then incubated with a starving media including EBM-2, 1% GlutaMax+0.2% Normicin. Treatments was conducted using recombinant mini RELN constructs obtained from Innovagen and Recombinant Mouse Reelin Protein from R&D systems (3820-MR-025/CF). Each treatment was incubated for 5 minutes at 4 ug/mL concentration and cells were subsequently harvested in lysis buffer was applied constituted of RIPA (Cell signaling), proteases inhibitors (cOmplete™, Mini, EDTA-free Protease Inhibitor Cocktail, Roche), phosphatases inhibitors (PhosSTOP, Roche), 1 μL of proteasome inhibitor MG-132 10 mM, 1% Triton X 100. The lysates were scraped and centrifugated at 15000 rpm for 10 minutes at 4° C. Total protein levels were quantified via BCA assay. […] We detected pDAB1 (Tyr232; 1:1000, rabbit, #3325 Cell signaling), and total protein staining (Licor). […] To quantify the results, each band was quantified using ImageJ and data expressed as pDABL:total protein ratio normalized to the control.

IL2signalpeptide-6XHistag(SEQ ID NO: 62)-hReelin(AALeu1220-Ile2660) Cterm-REELINWT [225SV]
pDAB1 / Dab1 signaling activation [1]: efficacy | pDAB1 levels [2]: increased pDAB1 levels
